In PMC3746989 (ACS medicinal chemistry letters, 2013):

How the values were obtained:
[1] = system: PrP^Sc in RML prion-infected mouse neuroblastoma (ScN2a-cl3) cells; assay type: cell-based; details: for antiprion activity: relative to the 4-bromophenyl amide 10
ScN2a-cl3 cells = experiment: Cell viability / compound toxicity with fluorescent probe calcein-AM; assay type: cell-based, mouse
[2] = In vivo mouse single-dose PK, brain and plasma exposure; details: for brain exposure / drug levels in brain: mice, oral dosing
[3] = mouse, oral 10 mg/kg, brain, relative to 21

SMILES	Calcein AM LD50 (ScN2a-cl3 cells)	metabolic stability in hepatic microsomal preparations	brain exposure / drug levels in brain [2]	also measured
CCOc1cccc(C(=O)Nc2ccc(N3CCN(C)CC3)cc2)c1 [Compound 8]				antiprion activity [1]: inactivity
CN1CCN(c2ccc(NC(=O)c3cccc(Br)c3)cc2)CC1 [Compound 9]				antiprion activity [1]: inactivity
CC(=O)c1ccc(NC(=O)c2ccc(-c3ccccc3)cc2)cc1 [Compound 14]				fold improvement in potency, 14 versus 6 [1]: 10 fold
CN1CCN(c2ccc(NC(=O)c3ccc(-c4ccccc4)cc3)cc2)CC1 [Compound 15]	>5000 nM			fold increase in antiprion potency over compound 7 ([1]; relative to original lead 7): 4 fold
CC(C)N1CCN(c2ccc(NC(=O)c3ccc(-c4ccccc4)cc3)cc2)CC1 [Compound 17]	>10,000 nM	excellent metabolic stability	excellent drug levels in the brains	
CCN1CCN(c2ccc(NC(=O)c3ccc(-c4ccccn4)cc3)cc2)CC1 [Compound 20]	>10,000 nM		excellent drug levels in the brains	fold higher brain AUC than 21 [2, 3]: > 7 fold; fold higher brain Cmax than 21 [2, 3]: > 4 fold
CCN1CCN(c2ccc(NC(=O)c3ccc(-c4cccnc4)cc3)cc2)CC1 [Compound 21]	>10,000 nM			
CCN1CCN(c2ccc(NC(=O)c3ccc(-c4ccncc4)cc3)cc2)CC1 [Compound 22]	>10,000 nM			
CC(C)N1CCN(c2ccc(NC(=O)c3ccc(-c4ccccn4)cc3)cc2)CC1 [Compound 23]	>10,000 nM		much lower brain exposure than either 16 or 20	
CC(C)N1CCN(c2ccc(NC(=O)c3ccc(-c4ccccn4)cc3)nc2)CC1 [Compound 24]	>10,000 nM	excellent metabolic stability	excellent drug levels in the brains	
CC(C)N1CCN(c2ccc(NC(=O)c3ccc(-c4ccccn4)cc3)cn2)CC1 [Compound 25]	>10,000 nM			
CC(C)N1CCN(c2ccc(NC(=O)c3ccc(-c4ccccn4)cc3)c(F)c2)CC1 [Compound 26]	>10,000 nM	excellent metabolic stability	excellent drug levels in the brains	
CC(C)N1CCN(c2ccc(NC(=O)c3ccc(-c4ccccn4)cc3)cc2F)CC1 [Compound 27]	>10,000 nM	excellent metabolic stability	excellent drug levels in the brains	
